Assays:
human V3 receptor = target: T1, human V3 receptor (Homo sapiens, UniProt P47901); experiment: [3H]AVP binding to CHO cells stably expressing the human V3 receptor; settings: [3H]AVP 2.5x10^-9 mol/L
T1 construct: expressed in transfected cells
T1 sequence (P47901 1-424): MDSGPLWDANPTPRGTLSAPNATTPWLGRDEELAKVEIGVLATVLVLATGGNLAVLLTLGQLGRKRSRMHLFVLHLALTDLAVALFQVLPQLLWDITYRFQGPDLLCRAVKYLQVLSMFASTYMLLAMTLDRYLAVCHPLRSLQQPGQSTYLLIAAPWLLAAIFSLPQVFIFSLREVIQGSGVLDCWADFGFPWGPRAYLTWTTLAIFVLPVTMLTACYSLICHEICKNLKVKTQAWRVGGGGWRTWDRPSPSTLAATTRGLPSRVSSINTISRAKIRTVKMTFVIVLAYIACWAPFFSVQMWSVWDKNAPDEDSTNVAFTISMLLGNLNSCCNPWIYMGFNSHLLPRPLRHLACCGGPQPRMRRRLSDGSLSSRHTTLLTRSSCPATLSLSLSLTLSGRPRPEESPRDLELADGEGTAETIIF
Procedure: Chinese Hamster Ovary (CHO) cells stably expressing the human V3 receptor were incubated to equilibrium with the test compound (at a final assay concentration of 10^−10 mol.L^−1 to 10^−5 mol.L^−1) and [^3H]AVP (at a final assay concentration of 2.5×10^−9 mol.L^−1). […] After washing with ice-cold phosphate buffered saline (PBS), scintillation fluid was added and the plates counted on a Topcount NXT apparatus.
A sigmoidal dose response curve (non-linear regression, variable slope) was plotted as concentration of test compound (mol.L^−1) against percentage specific binding of [^3H]AVP and a Ki value was calculated. Each determination was carried out in triplicate and repeated on at least 3 separate occasions

V3 receptor = target: T2, V3 receptor (Rattus norvegicus, UniProt P48974); experiment: Block of AVP-induced ACTH release from isolated rat anterior pituitary corticotrophs; assay type: cell-based; settings: ACTH release after 3x10^-9 mol/L AVP for 120 minutes; ELISA; read-out: V3 receptor antagonism in isolated rat anterior pituitary cells
T2 construct: Anterior pituitary corticotrophs were prepared from adult female Sprague-Dawley rats; endogenous in cells; host or cells: primary anterior pituitary corticotrophs from adult female Sprague-Dawley rats
T2 sequence (P48974 1-425): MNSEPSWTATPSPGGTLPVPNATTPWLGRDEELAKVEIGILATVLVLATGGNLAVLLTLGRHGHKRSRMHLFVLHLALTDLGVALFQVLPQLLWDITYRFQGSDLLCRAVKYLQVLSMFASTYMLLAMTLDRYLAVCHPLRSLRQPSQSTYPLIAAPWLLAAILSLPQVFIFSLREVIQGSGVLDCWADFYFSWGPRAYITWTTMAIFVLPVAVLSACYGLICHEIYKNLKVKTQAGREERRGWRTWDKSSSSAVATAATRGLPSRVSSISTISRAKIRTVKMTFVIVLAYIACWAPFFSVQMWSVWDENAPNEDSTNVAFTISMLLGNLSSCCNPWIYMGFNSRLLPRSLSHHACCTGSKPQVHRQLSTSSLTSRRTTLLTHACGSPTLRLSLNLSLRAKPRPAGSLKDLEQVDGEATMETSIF
Procedure: The ability of compounds of the invention to act as V3 antagonists in a physiologically relevant system was determined by measuring their ability to block the release of adrenocorticotropic hormone (ACTH) from anterior pituitary corticotrophs in response to treatment with arginine vasopressin (AVP).
Anterior pituitary corticotrophs were prepared from adult female Sprague-Dawley rats and seeded into 48 well plates. The cells were cultured for 4 days prior to exposure to compound. Test compounds were prepared at 10^−5 mol.L^−1 in 100% DMSO. Cells were exposed to a dose response of test compounds for 20 minutes (10^−8 mol.L^−1−10^−5 mol.L^−1). The final concentration of DMSO in the assay was kept constant at 0.3%. The cells were then exposed to 3×10^−9 mol.L^−1 AVP for 120 minutes. Supernatants were harvested and stored at −20° C. ACTH levels were subsequently measured by ELISA following the manufacturer's instructions (Immunodiagnostic systems, UK (Cat No. DX-SDX018)). Each treatment was carried out in quadruplicate and a mean value obtained for the amount of ACTH released. The degree of antagonism was then calculated as a percentage of the amount of ACTH released by agonist alone after adjustment for basal levels of ACTH. A pIC50 was calculated by fitting a Sigmoidal dose response (variable slope) curve with a non-linear (fit) to the data using the software package GraphPad prism. […]

Ki (human V3 receptor) [µM] | IC50 (V3 receptor) [µM] | Structure (SMILES)
0.1 to 1 |  | COc1cccc(-c2cc3ccc(OC[C@@H](C)CN4CCCCC4)cc3c(=O)n2CC(=O)NC(C)C)c1 [EXAMPLE 14, N-Isopropyl-2-[3-(3-methoxyphenyl)-7-((S)-2-methyl-3-piperidin-1-ylpropoxy)-1-oxo-1H-isoquinolin-2-yl]acetamide]
 | 0.01 to 0.1 | CC(C)(C)NC(=O)Cn1c(-c2cccc(Cl)c2)cc2ccc(OCCCN3CCC(O)CC3)cc2c1=O [EXAMPLE 17, N-tert-Butyl-2-{3-(3-Chlorophenyl)-7-[3-(4-hydroxypiperidin-1-yl)-propoxy]-1-oxo-1H-isoquinolin-2-yl}-acetamide]
< 0.01 |  | CC(C)NC(=O)Cn1c(-c2ccccc2)cc2ccc(OCCCN3CCCCC3)cc2c1=O [EXAMPLE 26, N-Isopropyl-2-[1-oxo-3-phenyl-7-(3-piperidin-1-ylpropoxy)-1H-isoquinolin-2-yl]acetamide]
0.1 to 1 |  | CC(C)(C)NC(=O)Cn1c(-c2ccc(F)c(Cl)c2)cc2ccc(OCCCN3CCCC3)cc2c1=O [EXAMPLE 28, N-tert-Butyl-2-[3-(3-chloro-4-fluorophenyl)-1-oxo-7-(3-pyrrolidin-1-ylpropoxy)-1H-isoquinolin-2-yl]acetamide]
0.01 to 0.1 |  | CC(C)NC(=O)Cn1c(-c2cccc(F)c2)cc2ccc(OC[C@@H](C)CN(C)C)cc2c1=O [EXAMPLE 3, 2-[7-((S)-3-Dimethylamino-2-methylpropoxy)-3-(3-fluorophenyl)-1-oxo-1H-isoquinolin-2-yl]-N-isopropylacetamide]
 | 0.1 to 1 | CC(C)NC(=O)Cn1c(-c2cccc(Cl)c2)cc2ccc(OC[C@@H](C)CN3CCCC3)cc2c1=O [EXAMPLE 1, 2-[3-(3-Chlorophenyl)-7-((S)-2-methyl-3-pyrrolidin-1-ylpropoxy)-1-oxo-1H-isoquinolin-2-yl]-N-isopropylacetamide]
0.01 to 0.1 |  | COc1cccc(-c2cc3ccc(OCCCN4CCCC4)cc3c(=O)n2CC(=O)NC(C)(C)C)n1 [EXAMPLE 23, N-tert-Butyl-2-[3-(6-methoxypyridin-2-yl)-1-oxo-7-(3-pyrrolidin-1-ylpropoxy)-1H-isoquinolin-2-yl]acetamide]
0.01 to 0.1 |  | CC(C)NC(=O)Cn1c(-c2cccc(Cl)c2)cc2ccc(-c3cccc(CN4CCCCC4)c3)cc2c1=O [EXAMPLE 35, 2-[3-(3-Chlorophenyl)-1-oxo-7-(3-piperidin-1-ylmethylphenyl)-1H-isoquinolin-2-yl]-N-isopropylacetamide]

— patent US7906504B2, “2-(1-oxo-1H-isoquinolin-2-yl)acetamide derivatives” (N.V. Organon, priority 2006, dated 2011)
